For the assay, the target named is T1, Kinase A and SpoOF (Bacillus subtilis, UniProt P16497).
T1 construct: made in house; host or cells: recombinant E. coli (overexpression)
T1 sequence (P16497 1-606): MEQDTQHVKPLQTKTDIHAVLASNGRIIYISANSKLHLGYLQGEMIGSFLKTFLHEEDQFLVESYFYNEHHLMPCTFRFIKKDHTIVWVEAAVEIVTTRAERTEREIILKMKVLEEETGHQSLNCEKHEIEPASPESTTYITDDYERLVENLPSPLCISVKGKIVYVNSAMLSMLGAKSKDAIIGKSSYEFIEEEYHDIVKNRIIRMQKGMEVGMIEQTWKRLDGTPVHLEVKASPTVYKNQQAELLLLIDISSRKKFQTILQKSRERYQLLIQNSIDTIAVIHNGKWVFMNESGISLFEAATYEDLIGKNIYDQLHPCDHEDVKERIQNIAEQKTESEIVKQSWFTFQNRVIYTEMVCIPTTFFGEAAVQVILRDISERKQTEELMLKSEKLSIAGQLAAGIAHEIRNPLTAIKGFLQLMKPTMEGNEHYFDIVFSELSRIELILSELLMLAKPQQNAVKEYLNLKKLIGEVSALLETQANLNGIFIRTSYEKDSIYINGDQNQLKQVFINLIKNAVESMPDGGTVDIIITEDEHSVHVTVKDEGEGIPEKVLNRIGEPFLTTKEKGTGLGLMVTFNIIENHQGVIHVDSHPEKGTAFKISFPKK
The assay is described as follows: Autophosphorylation of Kinase A and Transphosphorylation of SpoOF Assay (HPK in vitro assay). It counts as biochemical. To be noted: inhibition of KinA autophosphorylation / SpoOF transphosphorylation, inhibitor concentrations from 1 to 500 μM. As to the method: 1. Autophosphorylation of Kinase A and Transphosphorylation of SpoOF Assay
To study the effect of the compounds of the present invention on the signal transduction process in bacteria, the inhibiting effect of the compounds on the sporulation operon proteins Kinase A and SpoOF was examined. Specifically, the inhibition of autophosphorylation of Kinase A and the transphosphorylation of SpoOF was determined in the following assays. The SpoOF response regulator is the primary substrate for phosphorylation by the protein kinase, Kin A, involved in the sporulation process in bacteria. See D. Burbulys, K. A. Trach, J. A. Hoch, Cell, 64, 545-552 (1991). SpoOF and KinA were prepared from recombinant E. coli overexpressing the proteins (J. Cavanagh et al, Amino Acids, 6, 131-140 (1994) and references therein).
The following stock reagents were either prepared and used promptly or stored at the indicated temperature:
8× Salts: 2M KCl (5 mL), 1M MgCl2 (800 mL), 1M CaCl2 (100 mL), 10 mg/mL phenylmethylsulfonyl fluoride (200 mL), 1M dithioreitol (50 mL), 0.25M Na2 EDTA (32 mL) and H2 O 3.82 mL (-20° C.)
5× Loading Dye: 0.5M TRIS-HCl-pH 6.8 (7.5 mL), 10% SDS (2 mL) 0.1% bromophenol blue (0.5 mL), 100% glycerol (3 mL) and 12.5M 2-mercaptoethanol (0.3 mL)
1-1.3 mg/mL KinA:15 mM TRIS-HCl, pH 8.0, 6 mM KCl; 4 mM 2-mercaptoethanol; 40% glycerol (-20° C.)
1 mg/mL SpoOF: 17.5 mM TRIS-HCl, pH 8.0; 0.7 mM KCl; 0.7 mM MgCl2; 0.7 mM CaCl2; 5mM 2-mercaptoethanol; 30% Glycerol (-20° C.)
5% Stacking Gel: 40% 29:1 acrylamide:bis acrylamide (1.25 mL), 0.5M TRIS-HCl, pH 6.8 (2.5 mL), 10% SDS (0.1 mL), D-H2 O (6.15 mL) 10% ammonium persulfate (100 mL) and TEMED (25 mL)
SDS Running Buffer: TRIS-BASE (3.02 g), glycine (14.4 g) SDS (1 g), D-H2 O (to 1 L)
The reaction mixture was prepared from 8× Salts (87 μL), 1M TRIS, pH 8 (118 μL), 50% glycerol (63 μL), SpoOF (14.1 μL) and KinA (7.0 μL). Microcentrifuge tubes were charged with the reaction mixture (18.5 μL) and a 1.0 mM solution of the test compound in 5% DMSO (18.5 μL), and incubated for 15 min on ice. 100 mM ATP solution (3.0 μl, containing 625 μCi [^32 P]ATP) was added, and the mixture left for 10 minutes at room temperature. The reaction was quenched with 5× loading dye (10 μL per tube) and the samples were loaded on a prepared 5% Stacking Gel, or stored on dry ice until ready for use. The prepared wells were filled with SDS Running Buffer, samples were loaded into the wells, and 80 volts were applied to the gel until the dye front reached the bottom of the stacking gel. The voltage was then increased to 250 volts until electrophoresis was complete. Radioactive bands in the gel corresponding to phosphorylated KinA and SpoOF were imaged and quantitated with a phosphoimager.
If either enzyme was inhibited (as evidenced by the absence of labelled protein in the developed gel), an IC50 was calculated by running the assay with a range of inhibitor concentrations from 1 to 500 μM. After electrophoresis of the reaction mixtures, percent inhibition was determined by measuring the concentration of radioactive phosphorus with a phosphoimager and calculating the values using a software program (BioRad Molecular Analyst). IC50 values of less than 500 μM are considered active.

Counter-ions that a name gives are not always drawn.

For 21 compounds, IC50 results are on record in patent US5696117A, “Benzoxazine antimicrobial agents” (Ortho Pharmaceutical Corporation, priority 1995, dated 1997).

For the compound `N=C(N)NCCc1ccc(OCCC2Oc3cccnc3N(Cc3cccc(Cl)c3)C2=O)cc1` (stereo not drawn) [Compound 25, 4-(3-Chlorobenzyl)-3,4-dihydro-2-[2-[4-(2-guanidinoethyl)phenoxy]ethyl]-3-oxo-2H-pyrido[3,2-b]-1,4-oxazine], the IC50 – broadly, the concentration at which inhibition is half-maximal – is recorded as 41 µM.
Take `CC(C)(C)OC(=O)N=C(NCCc1ccc(OCCC2Oc3ccccc3N(Cc3ccccc3)C2=O)cc1)NC(=O)OC(C)(C)C` (stereo not drawn) [Compound 27]: the IC50 was 340 µM.
For `N=C(N)NCCc1ccc(OCCC2Oc3ccccc3N(Cc3ccccc3)C2=O)cc1` (stereo not drawn) [Compound 28, 4-Benzyl-3,4-dihydro-2-{2-[4-[2-guanidinoethyl]phenoxy]ethyl}-3-oxo-2H-1,4-benzoxazine Hydrochloride 0.7 Hydrate] the value was 44 µM; for `COc1ccccc1CN1C(=O)C(CCOc2ccc(CCNC(=N)N)cc2)Oc2ccccc21` (stereo not drawn) [Compound 29, 3,4-Dihydro-2-{2-[4-(2-guanidinoethyl)phenoxy]ethyl}-4-(2-methoxybenzyl)-3-oxo-2H-1,4-benzoxazine], 54 µM; for `N=C(N)NCCc1ccc(OCCC2Oc3ccccc3N(Cc3cccc(F)c3)C2=O)cc1` (stereo not drawn) [Compound 31, 3,4-Dihydro-4-(3-fluorobenzyl)-2-{2-[4-(2-guanidinoethyl)phenoxy]ethyl}-3-oxo-2 H-1,4-benzoxazine], 46 µM.
For `COc1cccc(CN2C(=O)C(CCOc3ccc(CCNC(=N)N)cc3)Oc3ccccc32)c1` (stereo not drawn) [Compound 33, 3,4-Dihydro-2-{2-[4-(2-guanidinoethyl)phenoxy]ethyl}-4-(3-methoxybenzyl)-3-oxo-2H-1,4-benzoxazine] the value was 145 µM.
For `N=C(N)NCCc1ccc(OCCC2Oc3ccccc3N(Cc3cccc(OCc4ccccc4)c3)C2=O)cc1` (stereo not drawn) [Compound 35, 4-(3-Benzyloxybenzyl)-3,4-dihydro-2-{2-[4-(2-guanidinoethyl)phenoxy]ethyl}-3-oxo-2H-1,4-benzoxazine] the value was 24 µM.
`N=C(N)NCCc1ccc(OCCC2Oc3ccccc3N(Cc3cccc(O)c3)C2=O)cc1` (stereo not drawn) [Compound 36, 3,4-Dihydro-2-{2-[4-(2-guanidinoethyl)phenoxy]ethyl}-4-(3-hydroxybenzyl)-3-oxo-2H-1,4-benzoxazine] showed an IC50 of 72 µM.
For the compound `COc1ccc(CN2C(=O)C(CCOc3ccc(CCNC(=N)N)cc3)Oc3ccccc32)cc1` (stereo not drawn) [Compound 37, 3,4-Dihydro-2-{2-[4-(2-guanidinoethyl)phenoxy]ethyl}-4-(4-methoxybenzyl)-3-oxo-2H-1,4-benzoxazine], the IC50 is 51 µM.
As for `N=C(N)NCCc1ccc(OCCC2Oc3ccccc3N(Cc3ccc(-c4ccccc4)cc3)C2=O)cc1` (stereo not drawn) [Compound 38, 3,4-Dihydro-2-{2-[4-(2-guanidinoethyl)phenoxy]ethyl}-3-oxo-4-(4-phenylbenzyl)-2H-1,4-benzoxazine], the figure is 34 µM; as for `N=C(N)NCCc1ccc(OCCC2Oc3ccccc3N(Cc3ccncc3)C2=O)cc1` (stereo not drawn) [Compound 42, 3,4-Dihydro-2-{2-[4-(2-guanidinoethyl)phenoxy]ethyl}-3-oxo-4-(4-picolyl)-2H-1,4-benzoxazine], 444 µM; as for `N=C(N)NCCc1ccc(OCCC2Oc3ccccc3N(Cc3cccc4ccccc34)C2=O)cc1` (stereo not drawn) [Compound 43, 3,4-Dihydro-2-{2-[4-(2-guanidinoethyl)phenoxy]ethyl}-4-(1-naphthylmethyl)-3-oxo-2H-1,4-benzoxazine], 13 µM.
As for `N=C(N)NCCc1ccc(OCCC2Oc3ccccc3N(Cc3ccc4ccccc4c3)C2=O)cc1` (stereo not drawn) [Compound 45, 3,4-Dihydro-2-{2-[4-(2-guanidinylethyl)phenoxy]ethyl}-4-(2-naphthylmethyl)-3-oxo-2H-1,4-benzoxazine], the figure is 17 µM; as for `N=C(N)NCCc1ccc(OCCC2Oc3ccccc3N(Cc3ccsc3)C2=O)cc1` (stereo not drawn) [Compound 46, 3,4-Dihydro-2-{2-[4-(2-guanidinylethyl)phenoxy]ethyl}-3-oxo-2H-4-(3-thienylmethyl)-1,4-benzoxazine], 68 µM.
For `CC(C)(C)OC(=O)N=C(NCCc1ccc(OCCC2Oc3ccccc3N(Cc3csc(Cl)c3)C2=O)cc1)NC(=O)OC(C)(C)C` (stereo not drawn) [Compound 47, 2-{2-[4-[2-(N,N-Bis-tert-butoxycarbonylguanidino)ethyl]phenoxy]ethyl}-4-(2-chloro-4-thienylmethyl)-3,4-dihydro-3-oxo-2H-1,4-benzoxazine] the value was 398 µM; for `N=C(N)NCCc1ccc(OCCC2Oc3ccccc3N(Cc3csc(Cl)c3)C2=O)cc1` (stereo not drawn) [Compound 48, 4-(2-Chloro-4-thienylmethyl)-3,4-dihydro-2-{2-[4-(2-guanidinoethyl)phenoxy]ethyl}-3-oxo-2H-1,4-benzoxazine], 26 µM.
`N=C(N)NCCc1ccc(OCCC2Oc3ccc(-c4ccccc4)cc3N(Cc3cccc(Cl)c3)C2=O)cc1` (stereo not drawn) [Compound 52, 4-(3-Chlorobenzyl)-3,4-dihydro-2-{2-[4-(2-guanidinoethyl)phenoxy]ethyl}-3-oxo-6-phenyl-2H-1,4-benzoxazine] registered an IC50 of 36 µM.
The compound `CC(C)(C)OC(=O)N=C(NCCc1ccc(OCCC2Oc3ccc(C(F)(F)F)cc3N(Cc3cccc(Cl)c3)C2=O)cc1)NC(=O)OC(C)(C)C` (stereo not drawn) [Compound 53, 2-{2-[4-[2-(N,N'-Bis-tert-butoxycarbonylguanidino)ethyl]phenoxy]ethyl}-4-(3-chlorobenzyl)-3,4-dihydro-3-oxo-6-trifluoromethyl-2H-1,4-benzoxazine] came in with an IC50 of 84 µM.
For `N=C(N)NCCc1ccc(OCCC2Oc3ccc(C(F)(F)F)cc3N(Cc3cccc(Cl)c3)C2=O)cc1` (stereo not drawn) [Compound 54, 4-(3-Chlorobenzyl)-3,4-dihydro-2-{2-[4-(2-guanidinoethyl)phenoxy]ethyl}-3-oxo-6-trifluoromethyl-2H-1,4-benzoxazine] the value was 14 µM; for `N=C(N)NCCc1ccc(OCCC2Oc3cc(F)ccc3N(Cc3cccc(Cl)c3)C2=O)cc1` (stereo not drawn) [Compound 55, 4-(3-Chlorobenzyl)-3,4-dihydro-7-fluoro-2-{2-[4-(2-guanidinoethyl)phenoxy]ethyl}-3-oxo-2H-1,4-benzoxazine], 28 µM; for `N=C(N)NCCc1ccc(OCCC2Oc3c(Cl)cc(Cl)cc3N(Cc3cccc(Cl)c3)C2=O)cc1` (stereo not drawn) [Compound 57, 4-(3-Chlorobenzyl)-6,8-dichloro-2-{2-[4-(2-guanidinoethyl)phenoxy]ethyl}-3,4-dihydro-3-oxo-2H-1,4-benzoxazine], 17 µM.
